According to publication PMC11874007, “Switching Roles—Exploring Concentration-Dependent Agonistic versus Antagonistic Behavior of Integrin Ligands” (Journal of Medicinal Chemistry, 2025):
Several values for one entry are separate records, joined by “and”; a condition that tells them apart may be missing. Equal entries are not always repeated.

Target: T1, human α5β1-integrin (Homo sapiens, UniProt P05556+P08648)
T1 construct: purchased R&D 3230-A5-050
Test: ELISA-type solid-phase binding assay: soluble α5β1 competing for immobilized fibronectin
Conditions: competitive ELISA-type assay, referenced to internal standard cilengitide (L2)
Description: Prior to the biological evaluation of the ligands, their specificity and subtype-selective affinity was analyzed by an ELISA (enzyme-linked immune sorbent assay)-type solid-phase ligand binding assay[59] by measuring the competitive binding of soluble purified integrins in the presence of the respective ligands to plate-immobilized purified ECM proteins, as described in Experimental Section: vitronectin (for αvβ3-directed ligands), fibronectin (for α5β1-directed ligands), or the latency-associated peptide (LAP) of transforming growth factor-β (TGF-β) (for αvβ6-directed ligands). Then, we determined whether Cy5.5 conjugation of ligands led to altered ligand binding affinities and integrin subtype selectivity compared to the unlabeled compounds. In the following, we describe in detail the alterations detected.
(3) 2.0 μg/mL mouse-anti-human CD51/61 (BD Biosciences, Franklin Lakes, New Jersey, USA; #555504). (4) 2.0 μg/mL anti-mouse IgG-POD (Sigma-Aldrich, #A9044-2ML). Integrin αvβ6: (1) 0.4 μg/mL LAP (TGF-β) (R&D, #246-LP-025), (2) 0.5 μg/mL human αvβ6 (R&D, #3817-AV-050), (3) 1:500 dilution mouse-anti-human αv (MAB1978) (Merck Millipore, #MAB1978), (4) 2.0 μg/mL anti-mouse IgG-POD (Sigma-Aldrich, #A9044-2ML). Integrin α5β1: (1) 0.5 μg/mL human fibronectin (Sigma-Aldrich, #F0895-1MG), (2) 2.0 μg/mL human α5β1 (R&D, 3230-A5-050), (3) 1.0 μg/mL mouse-anti-human CD49e (BD Biosciences, #555651), (4) 2.0 μg/mL anti-mouse IgG-POD (Sigma-Aldrich, #A9044-2 ML). For Western blot analysis, the following antibodies were used: (p-)p44/42^(erk-1/2) (1) 1:300 dilution of rabbit-anti-human p44/42^(erk-1/2) antibody (Cell Signaling Technology, Frankfurt, Germany, #9102) in 3% (w/v) bovine serum albumin (BSA)/TBS-T, (2) 1:5,000 dilution goat-anti-rabbit horseradish-conjugated secondary antibody in 1% (w/v) BSA/TBS-T. Phospho-p44/42^(erk-1/2): (1) 1:200 dilution rabbit-anti-human p44/42^(erk-1/2) (Thr202/Tyr204) antibody (Cell Signaling Technology, #9101) in 3% (w/v) BSA/TBS-T, (2) 1:5,000 dilution goat-anti-rabbit horseradish-conjugated secondary antibody in 1% (w/v) BSA/TBS-T. FAK: (1) 1:300 dilution mouse-anti-human FAK antibody (Cell Signaling Technology, #9102) in 3% (w/v) BSA/TBS-T, (2) 1:5,000 dilution goat-anti-mouse horseradish-conjugated secondary antibody in 1% (w/v) BSA/TBS-T. Phospho-FAK: (1) 1:300 dilution mouse-anti-human p-FAK antibody (Cell Signaling Technology) in 3% (w/v) BSA/TBS-T, (2) 1:5,000 dilution goat-antimouse horseradish-conjugated secondary antibody in 1% (w/v) BSA/TBS-T. Differences in blotting efficiency and protein loading were normalized by using a primary antibody against glyceraldehyde-3-phosphate dehydrogenase (GAPDH, 1:10,000 dilution in 1% (w/v) BSA/TBS-T, at RT for 45 min (Millipore, Schwalbach, Germany) and a secondary horseradish-conjugated goat-anti-mouse antibody (1:10,000 dilution in 1% (w/v) BSA/TBS-T, 40 min at RT).
The integrin binding assay was done to assess the specificity and subtype-selective affinity of L1–L5 and their respective Cy5.5-conjugated ligands by using isolated and purified integrins in cell-free ligand binding assays, as previously published.[59]Table 2 summarizes the used ECM ligands, integrins, and antibodies. In brief, flat-bottom 96-well plates were coated overnight at 4 °C with the natural ECM integrin ligands, vitronectin (for αvβ3-directed ligands), fibronectin (for α5β1-directed ligands), or LAP of TGF-β1 (for αvβ6-directed ligands) (100 μL/well in buffer containing 15 mM Na2CO3, 35 mM NaHCO3, pH 9.6). Subsequently, each well was washed in PBS, 0.01% (v/v) Tween 20, 137 mM NaCl, 2.7 mM KCl, 10 mM Na2HPO4, 2 mM KH2PO4, pH 7.4 (PBS-T), and blocked for unspecific binding events for 1 h at RT in 20 mM Tris–HCl, pH 7.5, 150 mM NaCl, 1 mM CaCl2, 1 mM MgCl2, 1 mM MnCl2, and 1% (w/v) BSA. Meanwhile, dilution series of the different integrin ligands and the internal standards were prepared, ranging from 20 μM to 256 pM in 1:5 dilution steps. […]

IC50	Compound
1.2 nM and 1.24 nM	C#CCCC(=O)NCCCOc1cc(C)c(C(=O)N[C@@H](CNC(=O)CNC(=O)c2cccc(NC(=N)N)c2)C(=O)O)c(C)c1 [L5, (S)-2-(2,6-Dimethyl-4-(3-(pent-4-ynamido)propoxy)benzamido)-3-(2-(3-guanidinobenzamido)acetamido)propanoic Acid]
73.4 ± 16.6 nM	C#CCCC(=O)NCCCOc1ccc(C(=O)N[C@H](CC(=O)O)Cc2ccc(OCCCNc3cc(OC)ccn3)cc2)cc1 [L1, (S)-4-(4-(3-((4-Methoxypyridin-2-yl)amino)propoxy)phenyl)-3-(4-(3-(pent-4-ynamido)propoxy)benzamido)butanoic Acid]
